# Measured values published in patent publication US20030162777A1, “Novel N-acylated heterocycles” (Recordati S.A., priority 2001, published 2003).
# Experiments:
# [1] = biological target: T1, human 5HT1A-serotonergic receptor (Homo sapiens, UniProt P08908); test: Radioligand binding to recombinant 5-HT1A receptors; conditions: [3H]8-OH-DPAT 1 nM, membranes of HeLa cells with human 5-HT1A receptor; Ki from IC50 by Cheng & Prusoff; read-out: Binding affinity for 5HT1A receptors, Ki
# T1 construct: expressed in transfected cells; host or cells: HeLa (human cell line), stably transfected; cell membranes used
# T1 sequence (P08908 1-422): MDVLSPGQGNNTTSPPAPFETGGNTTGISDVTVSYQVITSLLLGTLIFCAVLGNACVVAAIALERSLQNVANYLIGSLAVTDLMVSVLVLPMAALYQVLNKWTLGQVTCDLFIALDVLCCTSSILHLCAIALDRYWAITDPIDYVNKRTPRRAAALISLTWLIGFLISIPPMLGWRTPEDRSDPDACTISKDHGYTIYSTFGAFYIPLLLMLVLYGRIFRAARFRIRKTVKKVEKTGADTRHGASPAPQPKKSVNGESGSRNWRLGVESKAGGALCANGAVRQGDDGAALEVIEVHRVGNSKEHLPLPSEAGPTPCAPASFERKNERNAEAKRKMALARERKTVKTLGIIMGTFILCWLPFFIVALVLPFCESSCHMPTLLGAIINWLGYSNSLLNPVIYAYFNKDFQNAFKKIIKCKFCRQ
# In short: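 Displacement of 1 nM [3H]8-OH-DPAT (30 min, 30 °C, Tris-HCl pH 7.4 with MgCl2 and pargyline) from recombinant human 5-HT1A in transfected HeLa membranes, stopped by filtration. Specific binding defined against 10 μM 5-HT; IC50 by nonlinear fitting, then Ki by Cheng–Prusoff.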
# conscious rats = test: Effect on cystometric parameters in conscious rats after oral administration; assay type: in vivo, rat; conditions: 3 mg/kg p.o., 1-5 h after treatment, versus vehicle
# Protocol: Male Sprague-Dawley rats [Crl: CD° (SD) BR] of 300-400 g supplied by Charles River Italia were used. The animals were housed with free access to food and water and maintained on a forced 12-hour-light/12-hour-dark cycle at 22-24° C. of temperature, except during the experiment. To quantify urodynamic parameters in conscious rats, cystometrographic studies were performed according to the procedure previously reported (Guarneri et al., Pharmacol. Res. 24: 175, 1991).
# Briefly, the rats were anaesthetised by intraperitoneal administration of 3 ml/kg of Equithensin solution (pentobarbital 30 mg/kg and chloral hydrate 125 mg/kg) and placed in a supine position. An approximately-10-mm-long midline incision was made in the shaved and cleaned abdominal wall. The urinary bladder was gently freed from adhering tissues, emptied and then cannulated via an incision in the bladder body, using a polyethylene cannula (0.58-mm internal diameter, 0.96-mm external diameter) which was permanently sutured with silk thread. The cannula was exteriorised through a subcutaneous tunnel in the retroscapular area, where it was connected to a plastic adapter in order to avoid the risk of removal by the animal. For drug testing, the rats were utilised one day after implantation.
# On the day of the experiment, the rats were placed in modified Bollman cages, i.e. restraining cages that were large enough to permit the rats to adopt a normal crouched posture, but narrow enough to prevent turning around. […] The intraluminal-pressure signal during infusion of saline into the bladder was continuously recorded on a polygraph (Rectigraph-8K San-ei with BM614/2 amplifier from Biomedica Mangoni) and, from the cystometrogram, two urodynamic parameters were evaluated: bladder volume capacity (BVC) and micturition pressure (MP). […] Basal BVC and MP values were evaluated as mean of the values observed in the cystometrograms recorded in an initial period of 30-60 minutes. […] The bladder infusion restarted and changes in BVC and MP were evaluated from the mean values obtained in the cystometrograms observed during 1, 2, 3, 4 and 5 hours after treatment. […]
# All data were expressed as mean±standard error. Time-course data were analysed by S.A.S./STAT software, version 6.12. The difference between vehicle and active-treatment effect was evaluated by: General Linear Model Procedure—Repeated Measures Analysis of Variance: Univariate test of Hypotheses for within Subject Effects—Analysis of Variance of Contrast Variables. […]
smiles,measurement,setting,value
"O=C(C1CCCCC1)N1c2ccccc2CCC1CN1CCN(c2cccc3[nH]ccc23)CC1 (racemic) [Example 1, (±)1-(1-cyclohexanecarbonyl-1,2,3,4-tetrahydroquinoline-2-ylmethyl)-4-(4-indolyl)piperazine]",Ki,[1],3.3 nM
same,effect on bladder volume capacity (BVC),conscious rats,effective in increasing the bladder volume capacity
same,effect on micturition pressure (MP),conscious rats,without significant effects
